# Laboratory results reported in ChEMBL document CHEMBL4699592, “Nature-Inspired (di)Azine-Bridged Bisindole Alkaloids with Potent Antibacterial In Vitro and In Vivo Efficacy against Methicillin-Resistant Staphylococcus aureus” (J Med Chem, 2020).
# Calls of active or inactive are those of the source. The calls are words filed in the database; no cut-off is given here.
# Tests used:
# [1] = test system: Acinetobacter baumannii; experiment: Antibacterial activity against Acinetobacter baumannii ATCC BAA-1605 at 0.78 to 100 uM after 24 hrs by broth microdilution method; type: functional, organism-based; settings: dose microM 0.78-100, time 24.0 hrs
# [2] = test system: Mycobacterium tuberculosis; experiment: Antibacterial activity against Mycobacterium tuberculosis H37Rv at 0.78 to 100 uM after 5 days by resazurin dye based fluorescence assay; type: functional, organism-based; settings: dose microM 0.78-100, time 5.0 day
# [3] = test system: Staphylococcus aureus; experiment: Antibacterial activity against […] Staphylococcus aureus ATCC 700699 after 24 hrs by broth microdilution method; type: functional
# [4] = test system: Cell membrane; experiment: Induction of cell membrane permeabilization in GFP-expressing Staphylococcus aureus ATCC 700699 assessed as increase in cellular ATP leakage at 5 fold MIC measured after 0.5 hrs by Bactiter-glo assay; type: subcellular
# [5] = test system: Cell membrane; experiment: Induction of cell membrane permeabilization in methicillin resistant Staphylococcus aureus ATCC 700699 measured at 5 mins interval for 2 hrs by propidium iodide staining based fluorescence assay; type: subcellular
# [6] = test system: MRC5; experiment: Cytotoxicity against human MRC5 cells assessed as reduction in cell viability at >=12.5 uM measured after 48 hrs by resazurin dye based fluorescence assay; settings: mrc5, 48 h
# [7] = test system: Staphylococcus aureus; experiment: Bactericidal activity against […] Staphylococcus aureus ATCC 700699 assessed as reduction in bacterial viability at 5 fold MIC incubated for 6 hrs by time kill assay relative to control; type: functional
# [8] = test system: Staphylococcus aureus; experiment: Antibacterial activity against methicillin-resistant pyruvate kinase deficient Staphylococcus aureus USA300 LAC at 0.15 to 25 uM incubated for 24 hrs under low pyruvate containing medium by resazurin dye based fluorescence assay; type: functional, organism-based; settings: dose microM 0.15-25, time 24.0 hrs
# [9] = Selectivity index, ratio of IC50 for cytotoxicity against human THP-1 cells to MIC90 for antibacterial activity against […] Staphylococcus aureus ATCC 700699; type: toxicity, cell-based; settings: read-out: Selectivity Index
# [10] = test system: Staphylococcus aureus; experiment: Antibacterial activity against methicillin-resistant Staphylococcus aureus USA300 LAC at 0.15 to 25 uM incubated for 24 hrs under low glucose medium by resazurin dye based fluorescence assay; type: functional, organism-based; settings: dose microM 0.15-25, time 24.0 hrs
# [11] = Selectivity index, ratio of IC50 for cytotoxicity against human MRC5 cells to MIC90 for antibacterial activity against […] Staphylococcus aureus ATCC 700699; type: toxicity, cell-based; settings: read-out: Selectivity Index
# [12] = test system: Staphylococcus aureus; experiment: Antibacterial activity against methicillin-resistant Staphylococcus aureus USA300 LAC at 0.15 to 25 uM incubated for 24 hrs under low pyruvate containing medium by resazurin dye based fluorescence assay; type: functional, organism-based; settings: dose microM 0.15-25, time 24.0 hrs
# [13] = test system: THP-1; experiment: Cytotoxicity against human THP-1 cells assessed as reduction in cell viability at >=12.5 uM measured after 48 hrs by resazurin dye based fluorescence assay; settings: thp-1, 48 h
# [14] = Solubility of compound in pH 7.7 PBS buffer; type: physicochemical
# [15] = test system: Pseudomonas aeruginosa; experiment: Antibacterial activity against Pseudomonas aeruginosa ATCC 27853 measured after 24 hrs by broth microdilution method; type: functional
# [16] = test system: Escherichia coli; experiment: Antimicrobial activity against Escherichia coli ATCC BAA 2469 after 24 hrs by broth microdilution assay; type: functional
# [17] = test system: Klebsiella pneumoniae; experiment: Antibacterial activity against Klebsiella pneumoniae ATCC 700603 after 24 hrs by broth microdilution method; type: functional
# [18] = test system: Acinetobacter baumannii; experiment: Antibacterial activity against Acinetobacter baumannii ATCC BAA-1605 after 24 hrs by broth microdilution method; type: functional
# [19] = test system: Enterococcus faecium; experiment: Antibacterial activity against vancomycin-resistant Enterococcus faecium ATCC 35667 at 0.78 to 100 uM after 24 hrs by broth microdilution method; type: functional, organism-based; settings: dose microM 0.78-100, time 24.0 hrs
# [20] = test system: Enterococcus faecium; experiment: Antibacterial activity against vancomycin-resistant Enterococcus faecium ATCC 700221 at 0.78 to 100 uM after 24 hrs by broth microdilution method; type: functional, organism-based; settings: dose microM 0.78-100, time 24.0 hrs
# [21] = test system: Enterococcus faecalis; experiment: Antibacterial activity against Enterococcus faecalis ATCC 29212 at 0.78 to 100 uM after 24 hrs by broth microdilution method; type: functional, organism-based; settings: dose microM 0.78-100, time 24.0 hrs
# [22] = test system: Staphylococcus aureus; experiment: Antibacterial activity against methicillin susceptible Staphylococcus aureus ATCC 25923 at 0.78 to 100 uM after 24 hrs by broth microdilution method; type: functional, organism-based; settings: dose microM 0.78-100, time 24.0 hrs
# [23] = test system: Enterococcus faecalis; experiment: Antibacterial activity against Enterococcus faecalis ATCC 51299 at 0.78 to 100 uM after 24 hrs by broth microdilution method; type: functional, organism-based; settings: dose microM 0.78-100, time 24.0 hrs
# [24] = test system: Staphylococcus aureus; experiment: Inhibition of Staphylococcus aureus ATCC 700699 N-terminal His6-tagged pyruvate kinase expressed in Escherichia coli NiCo21(DE3) at 12.5 uM using phosphoenolpyruvate as substrate measured for 5 mins by LDH-coupled assay
# [25] = test system: HepG2; experiment: Cytotoxicity against human HepG2 cells assessed as reduction in cell viability at >12.5 uM measured after 48 hrs by resazurin dye based fluorescence assay; settings: hepg2, 48 h
# [26] = Cytotoxicity against human CLS-54 cells assessed as reduction in cell viability at >12.5 uM measured after 48 hrs by resazurin dye based fluorescence assay; settings: cls-54, 48 h
# [27] = test system: HEK293; experiment: Cytotoxicity against HEK293 cells assessed as reduction in cell viability at >12.5 uM measured after 48 hrs by resazurin dye based fluorescence assay; settings: human, hek293, 48 h
# [28] = test system: Staphylococcus aureus; experiment: Bactericidal activity against […] Staphylococcus aureus ATCC 700699 assessed as colony forming units at 5 fold MIC measured after 24 hrs by time kill assay; type: functional
# [29] = target: Pyruvate kinase PKM (Oryctolagus cuniculus) (UniProt P11974); experiment: Inhibition of rabbit muscle pyruvate kinase up to 12.5 uM using phosphoenolpyruvate as substrate measured for 5 mins by LDH-coupled assay; settings: dose microM <=12.5, time 5.0 min
# Pyruvate kinase PKM (Oryctolagus cuniculus), sequence (P11974 whole entry): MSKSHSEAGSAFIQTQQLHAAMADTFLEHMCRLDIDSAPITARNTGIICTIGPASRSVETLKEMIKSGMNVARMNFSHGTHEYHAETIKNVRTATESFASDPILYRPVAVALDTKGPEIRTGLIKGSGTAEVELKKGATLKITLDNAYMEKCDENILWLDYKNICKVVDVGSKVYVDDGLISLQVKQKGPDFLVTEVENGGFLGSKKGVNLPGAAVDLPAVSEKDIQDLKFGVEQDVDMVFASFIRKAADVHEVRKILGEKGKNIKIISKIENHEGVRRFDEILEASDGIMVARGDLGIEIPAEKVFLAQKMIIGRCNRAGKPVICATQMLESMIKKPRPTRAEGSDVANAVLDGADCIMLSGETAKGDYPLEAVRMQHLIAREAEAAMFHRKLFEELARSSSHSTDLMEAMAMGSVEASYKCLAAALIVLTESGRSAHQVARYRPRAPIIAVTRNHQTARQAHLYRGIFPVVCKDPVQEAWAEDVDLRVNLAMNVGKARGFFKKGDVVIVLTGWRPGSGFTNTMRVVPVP
molecule,measurement,setting,value
c1cc(-c2c[nH]c3ncccc23)nc(-c2c[nH]c3ncccc23)c1,Activity,[1],inactive
same,Activity,[2],inactive
same,MIC90,[3],> 100 µM
COc1c(N2C[C@@H]3CCCN[C@@H]3C2)c(F)cc2c(=O)c(C(=O)O)cn(C3CC3)c12,Activity,[4],inactive
same,Activity,[5],inactive
Fc1ccc2[nH]cc(-c3cnc(-c4c[nH]c5ccc(F)cc45)cn3)c2c1,Activity,[1],inactive
same,Activity,[2],inactive
same,MIC90,[3],> 100 µM
Brc1ccc2[nH]cc(-c3cnc(-c4c[nH]c5ccc(Br)cc45)cn3)c2c1,Activity,[6],Toxic
same,fold change (FC),[7],10000
same,Activity,[8],Active
same,selectivity ratio,[9],8
same,Activity,[10],Active
same,Activity,[1],inactive
same,selectivity ratio,[11],8
same,Activity,[12],Active
same,Activity,[2],inactive
same,MIC90,[3],1.56 µM
same,Activity,[13],Toxic
same,solubility,[14],Insoluble
COc1ccc2[nH]cc(-c3cccc(-c4c[nH]c5ccc(OC)cc45)n3)c2c1,Activity,[1],inactive
same,Activity,[2],inactive
same,MIC90,[3],12.5 µM
c1ccc2c(-c3cnc(-c4c[nH]c5ccccc45)nc3)c[nH]c2c1,Activity,[1],inactive
same,Activity,[2],inactive
same,MIC90,[3],12.5 µM
COLISTIN,MIC,[15],0.39 µM
same,MIC,[16],0.78 µM
same,MIC,[17],1.56 µM
same,MIC,[18],0.78 µM
Clc1ccc2[nH]cc(-c3cncc(-c4c[nH]c5ccc(Cl)cc45)n3)c2c1,Activity,[1],inactive
same,Activity,[2],inactive
same,MIC90,[3],0.39 µM
same,solubility,[14],Insoluble
c1ccc2c(-c3ccc(-c4c[nH]c5ccccc45)nn3)c[nH]c2c1,Activity,[1],inactive
same,Activity,[2],inactive
same,MIC90,[3],> 100 µM
Oc1ccc2[nH]cc(-c3cnc(-c4c[nH]c5ccc(O)cc45)nc3)c2c1 [HYRTINADINE A],Activity,[19],inactive
same,Activity,[20],inactive
same,Activity,[21],inactive
same,Activity,[1],inactive
same,Activity,[2],inactive
same,Activity,[22],inactive
same,MIC90,[3],> 100 µM
same,Activity,[23],inactive
Clc1ccc2[nH]cc(-c3ccnc(-c4c[nH]c5ccc(Cl)cc45)n3)c2c1,Activity,[6],Toxic
same,inhibition,[24],inactive
same,Activity,[19],Active
same,fold change (FC),[7],10000
same,Activity,[8],Active
same,Activity,[25],Toxic
same,Activity,[26],Toxic
same,Activity,[20],Active
same,Activity,[21],Active
same,selectivity ratio,[9],32
same,Activity,[10],Active
same,Activity,[1],Active
same,selectivity ratio,[11],32
same,Activity,[27],Toxic
same,Activity,[28],<10 CFU/ml
same,Activity,[12],Active
same,Activity,[2],Active
same,Activity,[22],Active
same,inhibition,[29],inactive
same,MIC90,[3],3.13 µM
same,Activity,[13],Toxic
same,Activity,[23],Active
COc1ccc2[nH]cc(-c3cnc(-c4c[nH]c5ccc(OC)cc45)cn3)c2c1,Activity,[19],inactive
same,Activity,[20],inactive
same,Activity,[21],inactive
same,Activity,[1],inactive
same,Activity,[2],inactive
same,Activity,[22],inactive
same,MIC90,[3],> 100 µM
same,Activity,[23],inactive
CC(=O)NC[C@H]1CN(c2ccc(N3CCOCC3)c(F)c2)C(=O)O1,Activity,[4],inactive
same,Activity,[5],inactive
Fc1ccc2[nH]cc(-c3cnc(-c4c[nH]c5ccc(F)cc45)nc3)c2c1,Activity,[1],inactive
same,Activity,[2],inactive
same,MIC90,[3],12.5 µM
Clc1ccc2[nH]cc(-c3ccc(-c4c[nH]c5ccc(Cl)cc45)nn3)c2c1,Activity,[6],Toxic
same,fold change (FC),[7],100
same,Activity,[8],Active
same,selectivity ratio,[9],8
same,Activity,[10],Active
same,Activity,[1],inactive
same,selectivity ratio,[11],8
same,Activity,[28],<10 CFU/ml
same,Activity,[12],Active
same,Activity,[2],inactive
same,MIC90,[3],0.78 µM
same,Activity,[13],Toxic
c1ccc2c(-c3cnc(-c4c[nH]c5ccccc45)cn3)c[nH]c2c1,Activity,[1],inactive
same,Activity,[2],inactive
same,MIC90,[3],> 100 µM
Brc1ccc2c(-c3cnc(-c4c[nH]c5cc(Br)ccc45)cn3)c[nH]c2c1,Activity,[1],inactive
same,Activity,[2],inactive
same,MIC90,[3],> 100 µM
c1cc(-c2c[nH]c3ccccc23)nc(-c2c[nH]c3ccccc23)c1,Activity,[1],inactive
same,Activity,[2],inactive
same,MIC90,[3],> 100 µM
Oc1ccc2[nH]cc(-c3cnc(-c4c[nH]c5ccc(O)cc45)cn3)c2c1,Activity,[19],inactive
same,Activity,[20],inactive
same,Activity,[21],inactive
same,Activity,[1],inactive
same,Activity,[2],inactive
same,Activity,[22],inactive
same,MIC90,[3],> 100 µM
same,Activity,[23],inactive
COc1ccc2[nH]cc(-c3cnc(-c4c[nH]c5ccc(OC)cc45)nc3)c2c1,Activity,[19],inactive
same,Activity,[20],inactive
same,Activity,[21],inactive
same,Activity,[1],inactive
same,Activity,[2],inactive
same,Activity,[22],inactive
same,MIC90,[3],50 µM
same,Activity,[23],inactive
